Columns and labels:
liver collagen = test: Liver collagen (hydroxyproline) content in BDO rats; format: in vivo, rat
Procedure: (§1) Female adult wistar rats, average weight 206±19 g, underwent the following microsurgical procedure under an operating microscope (OPMI 6-2, Zeiss, Germany) (B. Gerling, M. Becker, J. Waldschmidt, D. Schuppan (1996). J. Hepatol. 25:79-84; G. Boigk, L. Stroedter, H. Herbst H, et al. (1997). Hepatology 26:643-639.): 1. midline abdominal incision following anaesthesia with 100 mg/kg ketamine-hydroochloride (Ketanest®, Parke-Davis, Germany) and 10 mg/kg 5,6-dihydro-2-(2,6-xylidino)-4H-1,3-thiazine-hydrochloride (Rompun®, Bayer, Germany); 2. dissection of the common bile duct, insertion of a teflon catheter (Abbocath -T 26 G, venisystems, U.S.A.) and placement of a distal complete and a proximal incomplete ligature with 5-0 silk (Permahand , Ethicon, Germany); 3. retrograde injection of sodium-amidotrizoate (Ethibloc®, Ethicon Germany) at a dose of 0.02 ml/100 g body weight; 4. removal of the catheter, closure of the proximal ligature, scission of the bile duct between the ligatures and wound closure. After bile duct occlusion (BDO), animals received normal chow (Altromin®, Lage, Germany) and were allowed free access to water. […] The following therapeutic groups were formed: 1. BDO and LU at 80 mg/kg/d for 6 weeks (BDO 80/1-6:n=20); 2. BDO and LU at 80 mg/kg/d from week 4-6 of BDO (BDO 80/4-6:n=20); 3. BDO and LU at 10 mg/kg/d (sham 80/ 1-6:n=10), rats without medication (control: n=10) and bile duct occluded animals without treatment for 6 weeks (BDO: n=20) served as controls. […]
Hydroxyproline (HYP) was quantified in duplicates from 0.2 g of formalin-fixed liver as described (d. Schuppan, J. M. Dumont, K. Y. Kim, et al (1986). J. Hepatol. 3:27-37; C. Genovese; D. Rowe; B. Kream (1984). Biochemistry 23. 6210-6216.). […] Absorption was read at 558 nm and HYP concentrations were determined from a standard curve with 0 to 1.6 μg HYP (Merck, Germany). The hepatic HYP concentration was calculated using the formula [formula]
and the total liver HYP content calculated by multiplication with the liver weight.

[1] = Clinical chemical serum parameters in BDO and sham-operated rats; format: in vivo, rat; conditions: for ALP / ALT / AST / Bili (total bilirubin) / γGT: serum, mean ± SD
Procedure: as §1, with “3.” for “3. BDO and LU at 10 mg/kg/d (sham 80/ 1-6:n=10), rats without medication (control: n=10) and bile duct occluded animals without treatment for 6 weeks (BDO: n=20) served as controls.”
Standard laboratory parameters were measured by our in-hospital clinical chemical department, using an automated analyser (BM/Hitachi 747). The aminoterminal propeptide of procollagen type III (PIIINP) was determined using a sequential saturation radioimmunoassay based on PIINP from rat, a monospecific rabbit antiserum to rat PIIINP and a goat antiserum to rabbit IgG, using a previously described procedure (B. Gerling, M. Becker, J. Waldschmidt, D. Schuppan (1996). J. Hepatol. 25:79-84; G. Boigk, L. Stroedter, H. Herbst H, et al. (1997). Hepatology 26:643-649; d. Schuppan, J. M. Dumont, K. Y. Kim, et al. (1986). J. Hepatol. 3:27-37.). Inter- and intra-assay coefficients of variation were 12% and 5% for a normal and 4% and 3% for a pathological serum sample, resp.

[2] = Body and organ weights of rats with bile duct occlusion (BDO) or sham operation; format: in vivo
Procedure: as §1, with “3.” for “3. BDO and LU at 10 mg/kg/d (sham 80/ 1-6:n=10), rats without medication (control: n=10) and bile duct occluded animals without treatment for 6 weeks (BDO: n=20) served as controls.”
Early mortality (within 1 h to 3 days) in rats with BDO was due to local infection and amounted to 9%. […] After 6 weeks rats were sacrificed under ketanest(rompun-anaesthesia by puncture of the right ventricle and exsanguination. Heart, liver, spleen and kidneys were weighed, and 1-2 g pieces of the left and the right liver lobes fixed in 4% formalin for histology and hydroxyproline (HYP) determinations.

[3] = BDO/LU 80/1-6 (n = 10): BDO, LU 80 mg/kg/d week 1-6
[4] = BDO/LU 80/4-6 (n = 14): BDO, LU 80 mg/kg/d week 4-6
[5] = Sham/LU: sham operation, LU 80 mg/kg/d for 6 weeks, n = 10
[6] = BDO/LU 80/1-6: BDO, LU 80 mg/kg/d week 1-6, n = 10
[7] = BDO/LU 80/4-6: BDO, LU 80 mg/kg/d week 4-6, n = 14

In the case of `COc1cc(OC)nc(O[C@H](C(=O)O)C(OC)(c2ccccc2)c2ccccc2)n1` [LU], the “Reduction of relative liver collagen” value (liver collagen; 10 mg/kg/d over 6 weeks of BDO) is reported as 35%, the “Reduction of hepatic collagen” value (liver collagen; 80 mg LU/kg/d from week 4-6 after BDO, p<0.001) is reported as roughly 50% and the “Reduction of liver collagen (both as relative and total liver collagen content)” value (liver collagen; 80 mg LU/kg/d over the 6 weeks of BDO, vs untreated BDO, p<0.001) is reported as 50-55%. For the same compound, the “Clinical chemical serum parameters (AST, ALT, alkaline phosphatase, gamma glutamyltranspeptidase, total bilirubin, creatinine)” value ([1]; all groups with BDO) was “did not differ between all groups with BDO”, the ALP ([1]; headed BDO/LU 80/1-6 (n = 20)) was 256.1 ± 49.6 U/L and the ALT ([1]; headed BDO/LU 80/1-6 (n = 20)) was 22 ± 8.4 U/L. For the same compound, the AST ([1]; headed BDO/LU 80/1-6 (n = 20)) was 198 ± 56.7 U/L, the “Bili (total bilirubin)” value ([1]; headed BDO/LU 80/1-6 (n = 20)) was 189.5 ± 43.2 µmol/L and the γGT ([1]; headed BDO/LU 80/1-6 (n = 20)) was 15 ± 6.4 U/L. The ALP [1, 3] was 230.7 ± 55.7 U/L, the ALT [1, 3] was 23.6 ± 10.8 U/L and the AST [1, 3] was 160.9 ± 78.5 U/L. The “Bili (total bilirubin)” value [1, 3] was 171.3 ± 49.5 µmol/L, the γGT [1, 3] was 32.7 ± 24.4 U/L and the ALP [1, 4] was 253.1 ± 75.8 U/L. For the same compound, the ALT [1, 4] was 40.2 ± 52 U/L, the AST [1, 4] was 229 ± 78.5 U/L and the “Bili (total bilirubin)” value [1, 4] was 209.9 ± 48.9 µmol/L. It also gave a γGT [1, 4] of 28.1 ± 26.4 U/L, an ALP [1, 5] of 85.3 ± 17.9 U/L and an ALT [1, 5] of 21.7 ± 3.3 U/L. For the same compound, the AST [1, 5] was 36.4 ± 7.9 U/L, the “Bili (total bilirubin)” value [1, 5] was 1.6 ± 0.5 µmol/L and the γGT [1, 5] was 0.3 ± 0.5 U/L. For the same compound, the B.W. [2, 6] was 293.0 ± 32.89 g, the “Liver W.” value [2, 6] was 24.73 ± 4.47 g and the “Spleen W.” value [2, 6] was 1.78 ± 0.47 g. The B.W. [2, 7] was 259.1 ± 30.2 g, the “Liver W.” value [2, 7] was 23.01 ± 5.33 g and the “Spleen W.” value [2, 7] was 1.62 ± 0.46 g. For the same compound, the B.W. [2, 5] was 305.8 ± 23.40 g, the “Liver W.” value [2, 5] was 11.98 ± 1.95 g and the “Spleen W.” value [2, 5] was 0.73 ± 0.08 g. The “Liver and spleen weights” value ([2]; rats with BDO) was “reduced liver and spleen weights dose-dependently” and the “Weights of kidneys, heart and lungs” value ([2]; rats with BDO, high and low dose groups (not shown)) was “neither nor the low dose groups demonstrated significant differences”.

Source: patent publication US20020098186A1, “Use of endothelin inhibitors for treatment or prevention of fibrotic disorders” (priority 1999, published 2002)
